{"source": "patent US20210341448A1", "about": "“SCREENING METHOD FOR THERAPEUTIC DRUG OR PROPHYLACTIC DRUG FOR TAUOPATHY AND DIAGNOSTIC METHOD FOR TAUOPATHY” (National Center for Geriatrics and Gerontology, priority 2018, published 2021)", "key": {"NMDAR [1]": {"biological_target": "T1, NMDAR (Homo sapiens, UniProt Q05586)", "T1 construct": "endogenous in cells; host or cells: NT2-N neurons differentiated from NTERA-2 cl.D1 [NT2/D1] cells (ATCC CRL-1973)", "assay": "Measurement of calcium influx through NMDAR into NT2-N cells", "type": "cell-based", "conditions": "Cal-520, NT2-N cells, antagonist 50 μM", "method": "Cultured neurons expressing NMDARs retaining physiological functions were prepared by the following procedure to evaluate the NMDAR activation ability of the tau oligomer. The NTERA-2 cl.D1[NT2/D1] cells (ATCC CRL-1973) (hereinafter described as “NT2 cell”), which are derived from a human pluripotent embryonic cancer, were adhesively cultured on 10-cm plastic dish in maintenance culture medium (high glucose DMEM (Sigma-Aldrich, D6429), 10% FBS, 100 U/ml penicillin/streptomycin) under the conditions of 37° C. and 5% CO2 for 3 to 4 days until the confluency stage was attained. The NT2 cells were detached using Accutase (Innovative Cell Technologies, #AT104), were passaged, and were maintained over a period of 50 days. The medium was replaced 3 times a week.\nThe maintenance-cultured NT2 cells were dispersed in a low attachment petri dish (STAR SDish9015, RIKAKEN CO., LTD.) in a concentration of 1.5×10^6 to 2.5×10^6/dish, suspension-cultured under the conditions of 37° C. and 5% CO2 on a shaker (100 rpm), and 1 day later were induced to differentiate by adding 1 μM of all-trans-retinoic acid (abcam), to thereby form spheroids. 14 days later, the spheroids were collected, seeded in a 10-cm dish coated with 5 μg/ml of poly-D-lysin (PDL) (Sigma-Aldrich)/Laminin (LAM) (iMatrix-511, Nippi Inc.) and adhesively cultured under the conditions of 37° C. and 5% CO2. From the following day, the culture was carried out by adding 3 kinds of cell division inhibitors (10 μM of uridine, 10 μM of floxuridine, and 1 μM of AraC). […]\nFor analysis, 5 to 10 regions of the visual field of the NT2-N cells positioned in the system were manually set and the fluorescence intensities were recorded for each region, for Cal-520, every 1 minute for 1 hour continuously at excitation wavelength 480 nm/fluorescence emission wavelength 520 nm, and for Fluo-8, every 2 seconds for 5 minutes continuously at excitation wavelength 480 nm/fluorescence emission wavelength 520 nm. […]"}, "NMDAR [2]": {"system": "NMDAR", "assay": "Dot blot of gel-filtered tau oligomer fractions on NMDAR-containing membrane protein", "type": "binding, mouse", "conditions": "fractions 7 and 8 compared with fractions 6, 9 and 10", "method": "The membrane protein solution prepared by the procedure of the above (7-1) was diluted 16-fold with the above wash buffer and was spotted (1.5 μl/spot) on a nitrocellulose membrane. Then, the membrane was thoroughly dried to thereby obtain a nitrocellulose membrane on which the NMDAR-containing membrane protein was immobilized. On the other hand, a reaction solution before ultracentrifugation to be obtained in the process of preparing the HT-tau oligomer sample of the above (1-4) was fractionated using a gel filtration column (Superdex 200 10/300 GL column, GE Healthcare) (flow rate 0.5 ml/min, fractionated by 1 ml) to thereby obtain tau oligomer fractions in various sizes. Each of the obtained tau oligomer fractions was exposed to the nitrocellulose membrane on which the NMDAR-containing membrane protein was immobilized, to thereby detect the tau oligomers adsorbed onto the nitrocellulose membrane in the same manner as the detection procedure of tau oligomer in the above (7-2)."}, "NMDA receptor": {"system": "NMDA receptor", "assay": "NMDAR-based sandwich ELISA", "type": "binding, mouse"}, "membrane protein (NMDAR)": {"system": "membrane protein (NMDAR)", "assay": "Membrane protein-based sandwich ELISA", "type": "binding, mouse", "conditions": "data not shown", "method": "Pellets of the membrane protein obtained from tau knockout brain by the procedure of the above (7-1) were dissolved in 2% cholic acid or 1% deoxycholate/buffer (50 mM of HEPES, 150 mM of NaCl, pH 7.4), and the solution was centrifuged at 4° C., 150,000×g for 30 minutes to thereby collect the supernatant to use as a membrane protein solution. The obtained membrane protein solution was applied to an ELISA plate (Sumitomo Bakelite Co., Ltd., MS-8596F) and incubated at 4° C. for 60 minutes to thereby coat the plate with the membrane protein. After washing with wash solution (0.004 to 0.008% MNG-3, 50 mM of HEPES, pH 7.4), blocking was done by adding 1% FBS-containing wash solution and incubating at 4° C. for 60 minutes. The solvent of the HT-tau oligomer sample prepared in the above (1-4) was replaced with the wash solution using a protein concentrator (10K MWCO, Pierce, 88526) to thereby prepare a tau oligomer solution of 10^−16 to 10^−6 g/ml. These solutions were applied to the plate and incubated at 4° C. for 15 to 60 minutes. Then, the plate was washed thoroughly with the wash solution and a 5% skim milk-containing wash solution was added, followed by incubating at room temperature for 30 minutes to thereby block the protein. After washing using the wash solution, an anti-HaloTag antibody/wash solution (1:1000 dilution) was added and incubated at room temperature for 30 minutes. Subsequently, the plate was washed with the wash solution, an HRP-labelled secondary antibody/wash solution (Invitrogen, A27036) (1:5000 dilution) was added and incubated at room temperature for 30 minutes. Then, chromogenic reactions were carried out using an Ultra TMB solution (Thermo Fisher Scientific, 34028) to detect the tau oligomers bound to the membrane protein."}, "NT2-N cells": {"system": "NT2-N cells", "assay": "Adhesion activity of tau oligomers to NT2-N cell surface (fluorescence microscopy)", "type": "cell-based, human", "conditions": "on ice 30 minutes, no membrane permeabilization", "method": "Cal-520 AM was loaded to the NT2-N cells prepared in the above (4-1) by the procedure of the above (4-2), exposed to the tau oligomer sample (10 μl/ml) prepared in the above (1-3) and incubated on ice for 30 minutes. Subsequently, the cells were washed 3 times with DPBS(−) (137 mM of NaCl, 2.68 mM of KCl, 1.47 mM of KH2PO4, 8.06 mM of Na2HPO4) and fixed with 4% paraformaldehyde at room temperature for 15 minutes. After thorough washing with DPBS(−) (10 minutes×3 times), blocking was done with 1% BSA and 3% donkey serum/DPBS for 30 minutes. Then, the anti-phosphorylated tau antibody (anti-pTau (paired pS409, pS412, pS413), AnaSpec, #AS-55416) (1:1500 dilution) as the primary antibody was reacted at room temperature for 1 hour, and Alexa594-labelled anti-mouse IgG (Jackson Immuno Research, #711-585-152) (1:1500 dilution) as a secondary antibody was reacted at room temperature for 30 minutes, to thereby carry out immunostaining. The stained cells were observed using a fluorescence microscope (BZ-X710, Keyence Corporation).\nThe HT-tau oligomer sample prepared in the above (1-4), instead of the tau oligomer sample prepared in the above (1-3), was exposed to the NT2-N cells by the same procedure as in the above (5-1). After thorough washing, fluorescence microscopic observation was carried out."}, "NMDAR complex": {"biological_target": "T2, NMDAR complex (Mus musculus, UniProt P35436+P35438+Q01097)", "T2 construct": "from tissue", "T2 sequence (P35436 23-1464, other chains not shown)": "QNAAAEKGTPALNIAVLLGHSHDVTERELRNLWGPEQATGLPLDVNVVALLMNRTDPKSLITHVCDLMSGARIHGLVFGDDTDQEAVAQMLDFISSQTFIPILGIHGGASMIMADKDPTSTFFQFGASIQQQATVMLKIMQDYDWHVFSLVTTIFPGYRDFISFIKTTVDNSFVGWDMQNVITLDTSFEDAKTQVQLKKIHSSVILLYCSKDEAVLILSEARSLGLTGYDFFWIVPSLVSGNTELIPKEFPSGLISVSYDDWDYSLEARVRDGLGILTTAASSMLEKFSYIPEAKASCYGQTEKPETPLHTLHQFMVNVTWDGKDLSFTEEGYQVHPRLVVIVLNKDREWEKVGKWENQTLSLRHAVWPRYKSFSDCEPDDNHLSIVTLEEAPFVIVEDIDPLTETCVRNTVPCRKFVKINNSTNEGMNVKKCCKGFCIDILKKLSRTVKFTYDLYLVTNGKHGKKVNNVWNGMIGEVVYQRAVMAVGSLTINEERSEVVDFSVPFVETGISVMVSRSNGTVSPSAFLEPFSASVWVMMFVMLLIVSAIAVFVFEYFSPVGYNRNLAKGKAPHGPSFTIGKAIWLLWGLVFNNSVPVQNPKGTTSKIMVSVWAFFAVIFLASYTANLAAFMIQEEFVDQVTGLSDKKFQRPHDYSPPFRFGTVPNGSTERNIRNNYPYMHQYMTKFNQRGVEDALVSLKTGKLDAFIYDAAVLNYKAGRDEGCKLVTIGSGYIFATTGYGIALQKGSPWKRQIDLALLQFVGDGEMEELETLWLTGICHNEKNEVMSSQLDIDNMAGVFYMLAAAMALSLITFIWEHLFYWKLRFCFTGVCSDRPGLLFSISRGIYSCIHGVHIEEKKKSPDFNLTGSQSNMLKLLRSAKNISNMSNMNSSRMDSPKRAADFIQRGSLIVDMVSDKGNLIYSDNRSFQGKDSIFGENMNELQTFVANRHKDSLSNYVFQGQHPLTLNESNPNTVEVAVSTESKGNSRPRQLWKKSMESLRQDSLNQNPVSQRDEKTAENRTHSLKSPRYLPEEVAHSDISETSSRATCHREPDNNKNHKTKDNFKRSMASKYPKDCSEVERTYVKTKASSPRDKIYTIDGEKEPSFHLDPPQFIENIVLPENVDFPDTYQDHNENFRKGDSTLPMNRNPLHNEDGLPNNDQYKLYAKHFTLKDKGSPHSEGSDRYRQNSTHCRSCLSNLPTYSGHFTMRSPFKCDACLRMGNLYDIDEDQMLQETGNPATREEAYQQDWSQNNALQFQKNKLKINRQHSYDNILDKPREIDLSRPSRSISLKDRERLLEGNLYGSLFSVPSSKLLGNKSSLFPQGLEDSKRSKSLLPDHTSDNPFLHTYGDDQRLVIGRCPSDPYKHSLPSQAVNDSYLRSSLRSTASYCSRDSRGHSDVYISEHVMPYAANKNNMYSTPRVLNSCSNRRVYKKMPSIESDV", "T2 sequence (Q01097 27-1482, other chains not shown)": "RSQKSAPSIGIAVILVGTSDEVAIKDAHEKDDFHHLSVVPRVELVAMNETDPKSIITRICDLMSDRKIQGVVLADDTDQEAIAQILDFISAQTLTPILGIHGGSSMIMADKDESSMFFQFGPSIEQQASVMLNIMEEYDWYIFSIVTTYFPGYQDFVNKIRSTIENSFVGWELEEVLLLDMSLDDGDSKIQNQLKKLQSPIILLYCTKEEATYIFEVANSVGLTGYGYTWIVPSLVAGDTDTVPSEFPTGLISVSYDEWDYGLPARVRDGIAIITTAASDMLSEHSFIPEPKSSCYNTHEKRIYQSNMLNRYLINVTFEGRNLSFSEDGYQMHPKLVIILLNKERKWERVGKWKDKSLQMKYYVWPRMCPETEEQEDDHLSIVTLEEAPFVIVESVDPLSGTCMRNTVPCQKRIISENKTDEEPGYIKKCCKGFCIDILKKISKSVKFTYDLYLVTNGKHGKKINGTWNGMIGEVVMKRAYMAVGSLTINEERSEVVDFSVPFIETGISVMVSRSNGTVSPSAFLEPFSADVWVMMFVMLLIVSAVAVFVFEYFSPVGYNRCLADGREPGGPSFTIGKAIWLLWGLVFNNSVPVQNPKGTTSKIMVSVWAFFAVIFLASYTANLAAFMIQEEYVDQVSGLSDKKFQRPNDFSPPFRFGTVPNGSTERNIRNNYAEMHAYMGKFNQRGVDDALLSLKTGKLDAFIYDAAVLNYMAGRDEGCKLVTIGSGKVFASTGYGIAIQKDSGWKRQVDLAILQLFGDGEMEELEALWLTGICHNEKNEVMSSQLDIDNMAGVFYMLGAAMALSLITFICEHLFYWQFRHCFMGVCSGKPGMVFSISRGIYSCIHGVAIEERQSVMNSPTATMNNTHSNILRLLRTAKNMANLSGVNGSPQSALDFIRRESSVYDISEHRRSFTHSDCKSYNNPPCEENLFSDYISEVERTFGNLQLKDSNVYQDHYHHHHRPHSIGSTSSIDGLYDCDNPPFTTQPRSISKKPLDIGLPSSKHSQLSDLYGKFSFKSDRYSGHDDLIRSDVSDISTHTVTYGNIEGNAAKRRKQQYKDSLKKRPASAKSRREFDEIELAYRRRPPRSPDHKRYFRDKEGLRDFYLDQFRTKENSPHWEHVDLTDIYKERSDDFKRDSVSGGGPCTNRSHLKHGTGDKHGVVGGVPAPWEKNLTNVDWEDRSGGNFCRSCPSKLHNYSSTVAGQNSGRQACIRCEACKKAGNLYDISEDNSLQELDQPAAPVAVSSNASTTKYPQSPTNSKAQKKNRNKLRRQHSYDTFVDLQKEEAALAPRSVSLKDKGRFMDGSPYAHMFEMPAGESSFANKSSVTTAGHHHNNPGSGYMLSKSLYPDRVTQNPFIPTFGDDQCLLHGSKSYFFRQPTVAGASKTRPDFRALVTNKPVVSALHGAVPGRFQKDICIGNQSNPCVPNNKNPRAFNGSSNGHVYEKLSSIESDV", "assay": "Far-western blot of HT-tau oligomer on NMDAR complex", "type": "binding", "conditions": "anti-HaloTag detection", "from_the_text": "The membrane protein prepared by the procedure of the above (7-1) was applied to blue native PAGE (NativePAGE™ 3-12% Bis-Tris Protein Gel (Thermo Fisher Scientific, #BN1003BOX); NativePAGE™ Sample Prep Kit (Thermo Fisher Scientific, #BN2008); and NativePAGE™ Running Buffer Kit (Thermo Fisher Scientific, #BN2007) were used) to thereby obtain crude purified NMDAR (complex of a NMDAR4 tetramer and scaffolding proteins such as PSD95, hereinafter simply described as “NMDAR complex”). The NMDAR complex was transferred from the gel after electrophoresis to PVDF membrane (Merck Millipore, #IPVH00010) (transcription buffer: 25 mM of Tris, 192 mM of glycine, 0.1% SDS, 10% Methanol, pH 8.0). […] Subsequently, the membrane was washed, and the tau oligomer adsorbed onto the PVDF membrane was detected by an anti-HaloTag antibody (Promega Corporation, #G928A) (1:1500 dilution) and an HRP-labelled secondary antibody (Jackson Immuno Research, #111-035-144). Additionally, in a replication experiment carried out in parallel, the NMDAR complex was detected by the same procedure without the exposing step to the tau oligomer sample and using an anti-NR1 antibody (Merck Millipore, #MAB363) (1:2000 dilution), instead of the anti-HaloTag antibody."}}, "data": [{"compound": "NC(CCCP(=O)(O)O)C(=O)O", "note": "(stereo not shown) [APS, 2-amino-5-phosphonopentanoic acid, reference compound]", "values": [{"measurement": "increase of the intracellular calcium concentration induced by the tau oligomer, in presence of antagonist", "setting": "NMDAR [1]", "result": "lost"}]}, {"compound": "LMW TauO: comparatively low-molecular-weight tau oligomers contained in gel filtration fractions 7 and 8", "values": [{"measurement": "binding activity to NMDAR", "setting": "NMDAR [2]", "result": "strong binding activity"}]}, {"compound": "conantokin-G: a peptide blocking a ligand-binding site of the NMDA receptor (GEEELQENQELIREKSN) [reference compound]", "values": [{"measurement": "effect on binding of the tau oligomer to the NMDA receptor", "setting": "NMDA receptor", "result": "inhibited"}]}, {"compound": "NCC(=O)O", "note": "[glycine, reference compound]", "values": [{"measurement": "binding of the tau oligomer at low concentrations in the presence of NMDAR ligand", "setting": "membrane protein (NMDAR)", "result": "reduced"}]}, {"compound": "HT-tau oligomer: tau oligomer prepared from tau monomer and HaloTag-fused tau monomer mixed in a ratio of 4:1", "values": [{"measurement": "adhesion to the cell surface", "setting": "NT2-N cells", "result": "patchy pattern of fluorescence was observed"}, {"measurement": "interaction with NMDAR complex (around 800 kDa and 1100 kDa)", "setting": "NMDAR complex", "result": "interacted with both of them"}]}, {"compound": "N[C@@H](CCC(=O)O)C(=O)O", "note": "[glutamate, reference compound]", "values": [{"measurement": "binding of the tau oligomer at low concentrations in the presence of NMDAR ligand", "setting": "membrane protein (NMDAR)", "result": "reduced"}]}]}
